Assay results as given in the NIST ThermoML archive (doi:10.1016/j.fluid.2010.03.001).
Numbers after ± are expanded uncertainties.

Assay: xn = mol fraction of the nth substance listed
Details: 101 kPa, Liquid; for viscosity: Concentric cylinders viscometry; for mass density: Vibrating tube method

C=C(C)[C@H]1CC=C(C)CC1 [(R)-1-methyl-4-(1-methylethenyl)cyclohexene] + CCCCCO
Details	mass density [kg/m3]	viscosity [mPa·s]
293.15 K, x2 = 0	841.5 ± 1	0.902 ± 0.014
293.15 K, x2 = 0.092	839.4 ± 0.9	0.935 ± 0.014
293.15 K, x2 = 0.1644	837.8 ± 0.8	0.983 ± 0.015
293.15 K, x2 = 0.2748	835.4 ± 0.7	1.079 ± 0.015
293.15 K, x2 = 0.3592	833.5 ± 0.7	1.182 ± 0.016
293.15 K, x2 = 0.4565	831.2 ± 0.6	1.34 ± 0.017
293.15 K, x2 = 0.5542	828.8 ± 0.5	1.564 ± 0.019
293.15 K, x2 = 0.6068	827.4 ± 0.5	1.717 ± 0.021
293.15 K, x2 = 0.647	826.4 ± 0.5	1.851 ± 0.022
293.15 K, x2 = 0.7365	823.8 ± 0.4	2.213 ± 0.025
293.15 K, x2 = 0.8234	821.1 ± 0.4	2.66 ± 0.03
293.15 K, x2 = 0.9105	818.1 ± 0.4	3.26 ± 0.03
303.15 K, x2 = 0	833.6 ± 1	0.793 ± 0.013
303.15 K, x2 = 0.092	831.4 ± 0.9	0.814 ± 0.013
303.15 K, x2 = 0.1644	829.8 ± 0.8	0.85 ± 0.013
303.15 K, x2 = 0.2748	827.4 ± 0.7	0.923 ± 0.013
303.15 K, x2 = 0.3592	825.4 ± 0.7	1 ± 0.014
303.15 K, x2 = 0.4565	823.2 ± 0.6	1.115 ± 0.015
303.15 K, x2 = 0.5542	820.8 ± 0.5	1.275 ± 0.016
303.15 K, x2 = 0.6068	819.5 ± 0.5	1.384 ± 0.017
303.15 K, x2 = 0.647	818.4 ± 0.5	1.477 ± 0.018
303.15 K, x2 = 0.7365	816 ± 0.4	1.73 ± 0.02
303.15 K, x2 = 0.8234	813.4 ± 0.4	2.055 ± 0.023
303.15 K, x2 = 0.9105	810.5 ± 0.4	2.473 ± 0.026
313.15 K, x2 = 0	825.8 ± 1	0.702 ± 0.011
313.15 K, x2 = 0.092	823.4 ± 0.9	0.716 ± 0.011
313.15 K, x2 = 0.1644	821.8 ± 0.8	0.743 ± 0.011
313.15 K, x2 = 0.2748	819.4 ± 0.7	0.799 ± 0.012
313.15 K, x2 = 0.3592	817.4 ± 0.7	0.854 ± 0.012
313.15 K, x2 = 0.4565	815.2 ± 0.6	0.942 ± 0.013
313.15 K, x2 = 0.5542	812.9 ± 0.5	1.057 ± 0.014
313.15 K, x2 = 0.6068	811.6 ± 0.5	1.137 ± 0.014
313.15 K, x2 = 0.647	810.6 ± 0.5	1.201 ± 0.015
313.15 K, x2 = 0.7365	808.2 ± 0.4	1.386 ± 0.016
313.15 K, x2 = 0.8234	805.8 ± 0.4	1.617 ± 0.018
313.15 K, x2 = 0.9105	803 ± 0.4	1.915 ± 0.021
323.15 K, x2 = 0	817.9 ± 1	0.628 ± 0.01
323.15 K, x2 = 0.092	815.4 ± 0.9	0.635 ± 0.01
323.15 K, x2 = 0.1644	813.7 ± 0.8	0.655 ± 0.01
323.15 K, x2 = 0.2748	811.3 ± 0.7	0.699 ± 0.011
323.15 K, x2 = 0.3592	809.3 ± 0.7	0.737 ± 0.011
323.15 K, x2 = 0.4565	807.1 ± 0.6	0.805 ± 0.011
323.15 K, x2 = 0.5542	804.8 ± 0.5	0.891 ± 0.012
323.15 K, x2 = 0.6068	803.5 ± 0.5	0.949 ± 0.012
323.15 K, x2 = 0.647	802.5 ± 0.5	0.995 ± 0.013
323.15 K, x2 = 0.7365	800.2 ± 0.4	1.129 ± 0.014
323.15 K, x2 = 0.8234	797.9 ± 0.4	1.298 ± 0.015
323.15 K, x2 = 0.9105	795.3 ± 0.4	1.51 ± 0.017
333.15 K, x2 = 0	809.9 ± 0.9	0.566 ± 0.01
333.15 K, x2 = 0.092	807.3 ± 0.9	0.568 ± 0.009
333.15 K, x2 = 0.1644	805.5 ± 0.8	0.582 ± 0.009
333.15 K, x2 = 0.2748	803 ± 0.7	0.616 ± 0.01
333.15 K, x2 = 0.3592	801 ± 0.6	0.644 ± 0.01
333.15 K, x2 = 0.4565	798.8 ± 0.6	0.696 ± 0.01
333.15 K, x2 = 0.5542	796.5 ± 0.5	0.761 ± 0.01
333.15 K, x2 = 0.6068	795.2 ± 0.5	0.803 ± 0.011
333.15 K, x2 = 0.647	794.2 ± 0.5	0.837 ± 0.011
333.15 K, x2 = 0.7365	792.2 ± 0.4	0.937 ± 0.012
333.15 K, x2 = 0.8234	789.8 ± 0.4	1.06 ± 0.012
333.15 K, x2 = 0.9105	787.3 ± 0.4	1.219 ± 0.014
343.15 K, x2 = 0	801.9 ± 0.9	0.5 ± 0.009
343.15 K, x2 = 0.092	799.2 ± 0.8	0.511 ± 0.009
343.15 K, x2 = 0.1644	797.2 ± 0.8	0.52 ± 0.009
343.15 K, x2 = 0.2748	794.6 ± 0.7	0.546 ± 0.009
343.15 K, x2 = 0.3592	792.6 ± 0.6	0.567 ± 0.009
343.15 K, x2 = 0.4565	790.4 ± 0.6	0.608 ± 0.009
343.15 K, x2 = 0.5542	788.2 ± 0.5	0.657 ± 0.009
343.15 K, x2 = 0.6068	787 ± 0.5	0.688 ± 0.009
343.15 K, x2 = 0.647	786 ± 0.5	0.713 ± 0.01
343.15 K, x2 = 0.7365	783.7 ± 0.4	0.786 ± 0.01
343.15 K, x2 = 0.8234	781.5 ± 0.4	0.878 ± 0.011
343.15 K, x2 = 0.9105	779.1 ± 0.4	0.996 ± 0.012
353.15 K, x2 = 0	793.6 ± 0.9	0.452 ± 0.008
353.15 K, x2 = 0.092	790.8 ± 0.8	0.462 ± 0.008
353.15 K, x2 = 0.1644	788.9 ± 0.8	0.468 ± 0.008
353.15 K, x2 = 0.2748	786.2 ± 0.7	0.487 ± 0.008
353.15 K, x2 = 0.3592	784.2 ± 0.6	0.502 ± 0.008
353.15 K, x2 = 0.4565	781.9 ± 0.6	0.534 ± 0.008
353.15 K, x2 = 0.5542	779.5 ± 0.5	0.571 ± 0.008
353.15 K, x2 = 0.6068	778.4 ± 0.5	0.594 ± 0.008
353.15 K, x2 = 0.647	777.4 ± 0.5	0.615 ± 0.009
353.15 K, x2 = 0.7365	775.2 ± 0.4	0.669 ± 0.009
353.15 K, x2 = 0.8234	773.1 ± 0.4	0.737 ± 0.009
353.15 K, x2 = 0.9105	770.6 ± 0.4	0.827 ± 0.01
363.15 K, x2 = 0	785.4 ± 0.9	0.413 ± 0.008
363.15 K, x2 = 0.092	782.5 ± 0.8	0.421 ± 0.008
363.15 K, x2 = 0.1644	780.4 ± 0.8	0.424 ± 0.007
363.15 K, x2 = 0.2748	777.7 ± 0.7	0.438 ± 0.007
363.15 K, x2 = 0.3592	775.6 ± 0.6	0.448 ± 0.007
363.15 K, x2 = 0.4565	773.2 ± 0.6	0.473 ± 0.007
363.15 K, x2 = 0.5542	770.9 ± 0.5	0.502 ± 0.008
363.15 K, x2 = 0.6068	769.6 ± 0.5	0.519 ± 0.008
363.15 K, x2 = 0.647	768.6 ± 0.5	0.535 ± 0.008
363.15 K, x2 = 0.7365	766.5 ± 0.4	0.576 ± 0.008
363.15 K, x2 = 0.8234	764.4 ± 0.4	0.627 ± 0.008
363.15 K, x2 = 0.9105	762 ± 0.4	0.691 ± 0.009
373.15 K, x2 = 0	777.1 ± 0.9	0.382 ± 0.007
373.15 K, x2 = 0.092	774.3 ± 0.8	0.385 ± 0.007
373.15 K, x2 = 0.1644	771.9 ± 0.8	0.386 ± 0.007
373.15 K, x2 = 0.2748	769 ± 0.7	0.395 ± 0.007
373.15 K, x2 = 0.3592	766.9 ± 0.6	0.402 ± 0.007
373.15 K, x2 = 0.4565	764.4 ± 0.6	0.421 ± 0.007
373.15 K, x2 = 0.5542	762 ± 0.5	0.443 ± 0.007
373.15 K, x2 = 0.6068	760.7 ± 0.5	0.456 ± 0.007
373.15 K, x2 = 0.647	759.7 ± 0.5	0.469 ± 0.007
373.15 K, x2 = 0.7365	757.7 ± 0.4	0.499 ± 0.007
373.15 K, x2 = 0.8234	755.7 ± 0.4	0.538 ± 0.007
373.15 K, x2 = 0.9105	753.1 ± 0.4	0.584 ± 0.008
